Source: ChEMBL document CHEMBL5154870, “Discovery of novel glutaminase 1 allosteric inhibitor with 4-piperidinamine linker and aromatic heterocycles” (Eur J Med Chem, 2022)
pIC50, pKd: −log10 of the molar value. Active and inactive are the calls of the source. No cut-off for these calls is given here.

Assays:
[1] = system: HCT-116; assay: Antiproliferative activity against human HCT-116 cells overexpressing GLS1 assessed as inhibition of cell proliferation measured after 72 hrs by MTT assay; assay type: functional, cell-based; details: HCT-116, 72 h
[2] = Toxicity in nude mouse xenografted with human HCT-116 cells assessed as kidney damage by measuring edema and atrophy at 50 to 100 mg/kg, ip measured after 21 days by H and E staining based analysis; assay type: organism-based; details: in vivo, 504 h, dose 50-100 mg/kg, time 21 day
[3] = Toxicity in nude mouse xenografted with human HCT-116 cells assessed as spleen damage by measuring edema and atrophy at 50 to 100 mg/kg, ip measured after 21 days by H and E staining based analysis; assay type: organism-based; details: in vivo, 504 h, dose 50-100 mg/kg, time 21 day
[4] = target: T1, Glutaminase kidney isoform, mitochondrial (Homo sapiens, UniProt O94925); assay: Binding affinity to human GLS1 assessed as dissociation constant by surface plasmon resonance analysis
T1 sequence (O94925 whole entry): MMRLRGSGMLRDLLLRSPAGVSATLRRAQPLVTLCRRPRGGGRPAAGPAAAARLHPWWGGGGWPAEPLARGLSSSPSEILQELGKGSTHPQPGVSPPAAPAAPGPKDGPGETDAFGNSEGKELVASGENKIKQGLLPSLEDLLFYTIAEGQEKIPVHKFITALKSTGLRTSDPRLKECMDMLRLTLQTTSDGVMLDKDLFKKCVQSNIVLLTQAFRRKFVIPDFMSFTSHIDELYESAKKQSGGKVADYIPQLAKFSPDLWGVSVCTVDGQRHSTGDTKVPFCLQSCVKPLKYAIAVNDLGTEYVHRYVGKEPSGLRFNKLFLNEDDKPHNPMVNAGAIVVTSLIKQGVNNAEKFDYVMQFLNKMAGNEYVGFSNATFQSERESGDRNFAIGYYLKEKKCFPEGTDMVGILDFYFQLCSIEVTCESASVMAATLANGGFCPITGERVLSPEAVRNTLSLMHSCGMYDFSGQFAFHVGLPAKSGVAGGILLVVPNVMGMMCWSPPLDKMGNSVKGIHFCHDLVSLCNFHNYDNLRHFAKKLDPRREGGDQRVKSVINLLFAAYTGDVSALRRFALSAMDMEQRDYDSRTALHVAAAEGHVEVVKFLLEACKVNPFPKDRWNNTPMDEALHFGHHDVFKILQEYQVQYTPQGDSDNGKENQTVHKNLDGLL

[5] = system: MDA-MB-436; assay: Antiproliferative activity against human MDA-MB-436 cells overexpressing GLS1 assessed as inhibition of cell proliferation measured after 72 hrs by MTT assay; assay type: functional, cell-based; details: MDA-MB-436, 72 h
[6] = Apparent volume of distribution in Sprague-Dawley rat at 5 mg/kg, iv measured for 72 hrs by LC-MS/MS analysis; assay type: ADME, organism-based; details: in vivo
[7] = Cmax in Sprague-Dawley rat at 10 mg/kg, ip measured for 72 hrs by LC-MS/MS analysis; assay type: ADME, organism-based; parameters: dose 10 mg/kg, time 72 hrs, route ip; details: in vivo
[8] = target: T2, Glutaminase kidney isoform, mitochondrial (Homo sapiens) (UniProt O94925); details: HCT-116, filed as negative allosteric modulator, dose 100-300 nM, time 12.0 hrs
T2 sequence (whole entry): T1 sequence (O94925 whole entry)

[9] = target: T2, Glutaminase kidney isoform, mitochondrial (Homo sapiens); details: HCT-116, filed as negative allosteric modulator, dose 100-300 nM, time 12.0 hrs; remark: listed apart in the source
[10] = target: T2, Glutaminase kidney isoform, mitochondrial (Homo sapiens); details: filed as negative allosteric modulator
Description: Binding affinity to human GLS1 assessed as stabilization of protein by measuring change in melting temperature by protein thermal shift assay

[11] = Toxicity in BALB/c SPF mouse xenografted with human HCT-116 cells assessed as body weight loss at 50 to 100 mg/kg, ip administered BID for 21 days; assay type: organism-based; details: in vivo, 504 h, dose 50-100 mg/kg, time 21 day
[12] = Metabolic stability in human liver microsomes assessed as intrinsic clearance at 10 uM by LC-MS/MS analysis; assay type: ADME, Microsome; details: read-out: CLH
[13] = system: HCT-116; assay: Antitumor activity against human HCT-116 cells xenografted in BALB/c SPF mouse assessed as tumor growth inhibition at 100 mg/kg, ip administered BID for 21 days; assay type: functional; details: Mus musculus, HCT-116, 504 h, time 21 day, read-out: TGI
[14] = Half life in Sprague-Dawley rat at 5 mg/kg, iv measured for 72 hrs by LC-MS/MS analysis; assay type: ADME, organism-based; details: in vivo
[15] = system: H22; assay: Antiproliferative activity against mouse H22 cells assessed as inhibition of cell proliferation measured after 72 hrs by MTT assay; assay type: functional, cell-based; details: H22, 72 h
[16] = Apparent volume of distribution in Sprague-Dawley rat at 10 mg/kg, ip measured for 72 hrs by LC-MS/MS analysis; assay type: ADME, organism-based; details: in vivo
[17] = target: T2, Glutaminase kidney isoform, mitochondrial (Homo sapiens); details: HCT-116, filed as negative allosteric modulator, dose 100-300 nM, time 12.0 hrs; remark: listed apart in the source
[18] = target: T2, Glutaminase kidney isoform, mitochondrial (Homo sapiens); details: HCT-116, filed as negative allosteric modulator, dose 100-300 nM, time 12.0 hrs; remark: listed apart in the source
[19] = Toxicity in nude mouse xenografted with human HCT-116 cells assessed as liver damage by measuring edema and atrophy at 50 to 100 mg/kg, ip measured after 21 days by H and E staining based analysis; assay type: organism-based; details: in vivo, 504 h, dose 50-100 mg/kg, time 21 day
[20] = target: T2, Glutaminase kidney isoform, mitochondrial (Homo sapiens); details: HCT-116, filed as negative allosteric modulator, dose 100-300 nM, time 12.0 hrs; remark: listed apart in the source
[21] = target: T1, Glutaminase kidney isoform, mitochondrial; assay: Allosteric inhibition of human GLS1 using glutamine as substrate incubated for 60 mins by NADH/NADPH-based absorbance analysis
[22] = AUC (0 to t) in Sprague-Dawley rat at 10 mg/kg, ip measured for 72 hrs by LC-MS/MS analysis; assay type: ADME, organism-based; parameters: time 72 hrs, dose 10 mg/kg, route ip; details: in vivo
[23] = system: HCT-116; assay: Induction of apoptosis in human HCT-116 cells assessed as necrotic cells at 30 nM measured after 24 hrs by Annexin V-FITC/PI staining based flow cytometry method (reference value: 0.48 %); assay type: functional
[24] = AUC (0 to infinity) in Sprague-Dawley rat at 10 mg/kg, ip measured for 72 hrs by LC-MS/MS analysis; assay type: ADME, organism-based; parameters: dose 10 mg/kg, time 72 hrs, route ip; details: in vivo
[25] = target: T2, Glutaminase kidney isoform, mitochondrial (Homo sapiens); details: HCT-116, filed as negative allosteric modulator, dose 100-300 nM, time 12.0 hrs; remark: listed apart in the source
[26] = system: HCT-116; assay: Induction of apoptosis in human HCT-116 cells assessed as early apoptotic cells at 50 nM measured after 24 hrs by Annexin V-FITC/PI staining based flow cytometry method (reference value: 4.65 %); assay type: functional
[27] = Toxicity in nude mouse xenografted with human HCT-116 cells assessed as lung damage by measuring edema and atrophy at 50 to 100 mg/kg, ip measured after 21 days by H and E staining based analysis; assay type: organism-based; details: in vivo, 504 h, dose 50-100 mg/kg, time 21 day
[28] = Metabolic stability in human plasma assessed as parent compound remaining at 1 uM measured after 2 hrs by LC-MS/MS analysis; assay type: ADME, cell-free; details: read-out: Stability
[29] = system: HCT-116; assay: Induction of apoptosis in human HCT-116 cells assessed as late apoptotic cells at 50 nM measured after 24 hrs by Annexin V-FITC/PI staining based flow cytometry method (reference value: 3.55 %); assay type: functional
[30] = AUC (0 to infinity) in Sprague-Dawley rat at 5 mg/kg, iv measured for 72 hrs by LC-MS/MS analysis; assay type: ADME, organism-based; parameters: time 72 hrs, dose 5 mg/kg, route iv; details: in vivo
[31] = Apparent clearance in Sprague-Dawley rat at 10 mg/kg, ip measured for 72 hrs by LC-MS/MS analysis; assay type: ADME, organism-based; details: in vivo

**Q.** With O=C(Cc1ccccc1)Nc1nnc(NC2CCN(c3nnc(NC(=O)c4nccn4Cc4ccc(C(F)(F)F)cc4)s3)CC2)s1 as the compound, how does the pIC50 [1] read?
**A.** The pIC50 was 7.29.

**Q.** And the Activity [2]?
**A.** The Activity was “Non-Toxic”.

**Q.** What about the Activity [3] of the same compound?
**A.** The Activity was “Non-Toxic”.

**Q.** And the pKd [4]?
**A.** Its pKd is 7.28.

**Q.** And the pIC50 [5]?
**A.** The pIC50 was 6.43.

**Q.** And the Vd/F [6]?
**A.** The Vd/F was 7.31 L/kg.

**Q.** And the Cmax [7]?
**A.** Its Cmax is 262 ng/mL.

**Q.** What about the inhibition [8] of the same compound?
**A.** Its inhibition is “Active”.

**Q.** And the inhibition [9]?
**A.** The inhibition was “Active”.

**Q.** And the ΔTm [10]?
**A.** Its ΔTm is 14.9 °C.

**Q.** And the Activity [11]?
**A.** The Activity was “Non-Toxic”.

**Q.** What about the microsomal CLint at 10 µM [12] of the same compound?
**A.** The microsomal CLint at 10 µM was 8.95 µL/min/mg.

**Q.** And the inhibition in vivo at 100 mg/kg [13]?
**A.** Its inhibition in vivo at 100 mg/kg is 47.5%.

**Q.** And the half-life [14]?
**A.** Its half-life is 7.44 h.

**Q.** What about the pIC50 [15] of the same compound?
**A.** The pIC50 was 4.96.

**Q.** And the Vd/F [16]?
**A.** The Vd/F was 36.1 L/kg.

**Q.** What about the inhibition [17] of the same compound?
**A.** The inhibition was “Active”.

**Q.** And the inhibition [18]?
**A.** The inhibition was “Active”.

**Q.** What about the Activity [19] of the same compound?
**A.** The Activity was “Non-Toxic”.

**Q.** And the inhibition [20]?
**A.** The inhibition was “Active”.

**Q.** What about the pIC50 [21] of the same compound?
**A.** The pIC50 was 7.93.

**Q.** And the AUC(0-t) at 72 h [22]?
**A.** The AUC(0-t) at 72 h was 2900 ng·h/mL.

**Q.** What about the Activity [23] of the same compound?
**A.** The Activity was 0.048%.

**Q.** And the AUC(0-inf) [24]?
**A.** Its AUC(0-inf) is 3490 ng·h/mL.

**Q.** And the inhibition [25]?
**A.** The inhibition was “Active”.

**Q.** What about the Activity [26] of the same compound?
**A.** Its Activity is 23.4%.

**Q.** What about the Activity [27] of the same compound?
**A.** The Activity was “Non-Toxic”.

**Q.** And the remaining at 2 h, 1 µM [28]?
**A.** The remaining at 2 h, 1 µM was 96%.

**Q.** What about the Activity [29] of the same compound?
**A.** The Activity was 5.4%.

**Q.** And the AUC(0-inf) [30]?
**A.** Its AUC(0-inf) is 7310 ng·h/mL.

**Q.** What about the CL/F [31] of the same compound?
**A.** The CL/F was 48.8 mL/min/kg.
